The source of these data is publication PMC8002477, “Bioactive Indole Diketopiperazine Alkaloids from the Marine Endophytic Fungus Aspergillus sp. YJ191021” (Marine Drugs, 2021).

Values after ≈ are worked out from the molar mass of the structure shown. Like-named read-outs stand apart in the source and are kept apart here.

One series has as its system Vibrio parahaemolyticus. The series can be described thus: microbe, parasite or virus in culture. The format is cell-based. To be noted: read-out: MIC, Vp (Vibrio parahaemolyticus).
For the next series, the system named is Edwardsiella tarda. The series can be described thus: microbe, parasite or virus in culture. The format is cell-based. To be noted: read-out: MIC, Et (Edwardsiella tarda).
Another series has as its system Aeromonas hydrophilia. The series can be described thus: microbe, parasite or virus in culture. The format is cell-based. Particulars: read-out: MIC, Ah (Aeromonas hydrophilia).
A further series concerns Vibrio anguillarum. The series can be described thus: microbe, parasite or virus in culture. Particulars: read-out: MIC, Va (Vibrio anguillarum). The format is cell-based.
Series [1] concerns Xanthomonas oryzae pv. oryzae. The series can be described thus: microbe, parasite or virus in culture. The format is cell-based. To be noted: 24 h, read-out: MIC, Xe (Xanthomonas oryzae pv. oryzae).
Series [2] has as its system Xanthomonas oryzae pv. oryzicola. The series can be described thus: microbe, parasite or virus in culture. The format is cell-based. To be noted: 24 h, read-out: MIC, Xa (Xanthomonas oryzae pv. oryzicola).
Series [3] concerns Propionibacterium acnes (ATCC6919). The series can be described thus: Antimicrobial assay against P. acnes (to exclude false anti-inflammatory activity). Particulars: Cutibacterium acnes, ATCC6919, read-out: P. acnes MIC.
Series [4] deals with Colletotrichum gloeosporioides. The series can be described thus: Antimicrobial MIC assay, Colletotrichum gloeosporioides. The format is cell-based. To be noted: 28 °C, 3-4 days, read-out: MIC, Cg (Colletotrichum gloeosporioides).
For the next series, the system named is Fusarium oxysporum. The series can be described thus: Antimicrobial MIC assay, Fusarium oxysporum. The format is cell-based. Particulars: 28 °C, 3-4 days, read-out: MIC, Fo (Fusarium oxysporum).
Series [5] deals with THP-1 cells. The series can be described thus: MTT viability of THP-1 cells (safe concentration). To be noted: concentration range of THP-1 cells viability over 80%, 36 h.
The test system of another series is Rhizoctonia solani. The series can be described thus: Antimicrobial MIC assay, Rhizoctonia solani. The format is cell-based. To be noted: 28 °C, 3-4 days, read-out: MIC, Rs (Rhizoctonia solani).
The test system of series [6] is THP-1 cells. To be noted: human, 36 h.

Turning to `O=C(N[C@H](CO)[C@H](O)c1ccc([N+](=O)[O-])cc1)C(Cl)Cl` [Chloromycetin, reference compound], the MIC in the series with Vibrio parahaemolyticus came out at 2 µg/mL (≈ 6.19 µM); in the series with Edwardsiella tarda it was 2 µg/mL (≈ 6.19 µM); with Aeromonas hydrophilia, 2 µg/mL (≈ 6.19 µM); in the series with Vibrio anguillarum it was 0.5 µg/mL (≈ 1.55 µM); in [1], 12.5 µg/mL (≈ 38.7 µM); in [2], 12.5 µg/mL (≈ 38.7 µM).
Turning to `CC1(C)C=Cc2c(ccc3c2[N+]([O-])=C2C3=CC34NC(=O)C5(CCCN5C3=O)CC4C2(C)C)O1` (stereo not shown) [Compound 1, Asperthrin A], the MIC in the series on Vibrio parahaemolyticus was 16 µg/mL (≈ 35.9 µM); in the series on Edwardsiella tarda, 16 µg/mL (≈ 35.9 µM); in the series with Aeromonas hydrophilia it was 32 µg/mL (≈ 71.8 µM); in the series with Vibrio anguillarum it was 8 µg/mL (≈ 18 µM); in [3] it was more than 5 µM; in series [4], more than 100 µg/mL. For the same molecule, the MIC in the series on Fusarium oxysporum is more than 100 µg/mL; in series [1], 50 µg/mL (≈ 112 µM); in series [2] it was 12.5 µg/mL (≈ 28.1 µM). Also, in the series on THP-1 cells [5], the “THP-1 Cells SC (safe concentration)” value fell in the range of 0 to 5 µM.
`CC(=O)OC1C23NC(=O)C4(CCCN4C2=O)CC3C(C)(C)C12C(=O)Nc1c2ccc2c1C=CC(C)(C)O2` (stereo not shown) [Compound 5, Asperthrin E]: the MIC is 25 µg/mL (≈ 49.4 µM) in the series on Rhizoctonia solani (agricultural pathogenic fungus); more than 40 µM in series [3]; more than 100 µg/mL in series [4] (agricultural pathogenic fungus); more than 100 µg/mL with Fusarium oxysporum (agricultural pathogenic fungus); more than 100 µg/mL in series [1]; more than 100 µg/mL in series [2]. For the same molecule, in the series on THP-1 cells [5], the “THP-1 Cells SC (safe concentration)” value lay in the range of 0 to 40 µM.
Take `CC1(C)C=Cc2c(ccc3c2NC24N5C(=O)C6(O)CCCN6C(=O)C5CC32OC(CO)C4(C)C)O1` (stereo not shown) [Compound 6, Asperthrin F]: the MIC in [3] was more than 50 µM. Besides, in the series on THP-1 cells [5], the “THP-1 Cells SC (safe concentration)” value is 0 to 50 µM.
Consider `CC1(C)C=Cc2c(ccc3c2NC(=O)[C@@]32[C@H](O)[C@@]34NC(=O)[C@]5(CCCN5C3=O)C[C@H]4C2(C)C)O1` [Compound 9, sclerotiamide], for which the MIC in the series with Rhizoctonia solani was 25 µg/mL (≈ 53.9 µM); in [3], more than 50 µM; in series [4], more than 100 µg/mL; in the series with Fusarium oxysporum, more than 100 µg/mL; in series [1], more than 100 µg/mL; in [2], more than 100 µg/mL. The “THP-1 Cells SC (safe concentration)” value in the series on THP-1 cells [5] fell in the range of 0 to 50 µM.
As to `CC1(C)C=Cc2c(ccc3c2N(O)C(=O)C32C(O)C34NC(=O)C5(CCCN5C3=O)CC4C2(C)C)O1` (stereo not shown) [Compound 10, notoamide H], the MIC was 25 µg/mL (≈ 52.1 µM) in the series with Rhizoctonia solani; more than 50 µM in series [3]; more than 100 µg/mL in [4]; more than 100 µg/mL in the series with Fusarium oxysporum; more than 100 µg/mL in [1]; more than 100 µg/mL in [2]. Besides, in the series with THP-1 cells [5], the “THP-1 Cells SC (safe concentration)” value lay within 0 to 50 µM.
As to `CC1(C)C=Cc2c(ccc3c4c([nH]c23)C(C)(C)[C@@H]2C[C@]35CCCN3C(=O)[C@]2(NC5=O)[C@H]4O)O1` [Compound 12, notoamide R], the MIC in series [3] is more than 50 µM. Moreover, in the series on THP-1 cells [5], the “THP-1 Cells SC (safe concentration)” value lay in the range of 0 to 50 µM.
As to `CC(=O)N1CCN(c2ccc(OCC3COC(Cn4ccnc4)(c4ccc(Cl)cc4Cl)O3)cc2)CC1` (stereo not shown) [Ketoconazole, ketoconazole, reference compound], the MIC came out at 0.78 µg/mL (≈ 1.47 µM) in the series on Rhizoctonia solani (agricultural pathogenic fungus), 12.5 µg/mL (≈ 23.5 µM) in [4] (agricultural pathogenic fungus) and 100 µg/mL (≈ 188 µM) in the series on Fusarium oxysporum (agricultural pathogenic fungus).
On to `CC1=C(/C=C/C(C)=C/C=C/C(C)=C/C(=O)O)C(C)(C)CCC1` [Tretinoin, reference compound], for which the MIC in [3] is more than 50 µM. In addition, the “THP-1 Cells SC (safe concentration)” value in the series on THP-1 cells [6] was in the range of 0 to 50 µM.
